According to the supplement of paper PMC10307832:

Tests used:
Assay in all cases: relative viability (nuclei count vs DMSO), 5 days (fraction); higher = more cells survive
Crizotinib + Dasatinib = compound: C[C@@H](Oc1cc(-c2cnn(C3CCNCC3)c2)cnc1N)c1c(Cl)ccc(F)c1Cl [Crizotinib] + Cc1nc(Nc2ncc(C(=O)Nc3c(C)cccc3Cl)s2)cc(N2CCN(CCO)CC2)n1 [Dasatinib] (partner 0.075 µM)
Outline: (§1)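 Relative viability is defined as nuclei in treated wells over nuclei in vehicle wells. Duplicate plates were run and medians reported. Lung cancer cell lines in 1536-well plates were dosed by pin tool one day after seeding, with one drug or with a fixed anchor-drug dose plus five library-drug doses (not always all listed) in √10 steps, and nuclei were counted after 5 days.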

Olaparib + Alpelisib = compound: O=C(c1cc(Cc2n[nH]c(=O)c3ccccc23)ccc1F)N1CCN(C(=O)C2CC2)CC1 [Olaparib] + Cc1nc(NC(=O)N2CCC[C@H]2C(N)=O)sc1-c1ccnc(C(C)(C)C(F)(F)F)c1 [Alpelisib] (partner 2 µM)
Outline: as §1

Olaparib + Crizotinib = compound: O=C(c1cc(Cc2n[nH]c(=O)c3ccccc23)ccc1F)N1CCN(C(=O)C2CC2)CC1 [Olaparib] + C[C@@H](Oc1cc(-c2cnn(C3CCNCC3)c2)cnc1N)c1c(Cl)ccc(F)c1Cl [Crizotinib] (partner 1 µM)
Outline: as §1

Carfilzomib + Foretinib = compound: CC(C)C[C@H](NC(=O)[C@H](CCc1ccccc1)NC(=O)CN1CCOCC1)C(=O)N[C@@H](Cc1ccccc1)C(=O)N[C@@H](CC(C)C)C(=O)[C@@]1(C)CO1 [Carfilzomib] + COc1cc2c(Oc3ccc(NC(=O)C4(C(=O)Nc5ccc(F)cc5)CC4)cc3F)ccnc2cc1OCCCN1CCOCC1 [Foretinib] (partner 0.25 µM)
Outline: as §1

**Q.** Which relative viability (Crizotinib + Dasatinib; first compound 0.01 µM) does the source give for SK-LU-1 here?
**A.** 0.178

**Q.** And the relative viability (Crizotinib + Dasatinib; first compound 0.03162 µM)?
**A.** 0.16

**Q.** And the relative viability (Crizotinib + Dasatinib; first compound 0.1 µM)?
**A.** 0.181

**Q.** And the relative viability (Crizotinib + Dasatinib; first compound 0.3162 µM)?
**A.** 0.189

**Q.** And the relative viability (Crizotinib + Dasatinib; first compound 1 µM)?
**A.** 0.159

**Q.** What about the relative viability (Olaparib + Alpelisib; first compound 0.08 µM) of the same cell line?
**A.** 1.14

**Q.** What about the relative viability (Olaparib + Alpelisib; first compound 0.253 µM) of the same cell line?
**A.** 0.859

**Q.** What about the relative viability (Olaparib + Alpelisib; first compound 2.53 µM) of the same cell line?
**A.** 0.837

**Q.** And the relative viability (Olaparib + Alpelisib; first compound 8 µM)?
**A.** 0.554

**Q.** And the relative viability (Olaparib + Crizotinib; first compound 0.08 µM)?
**A.** 1.15

**Q.** What about the relative viability (Olaparib + Crizotinib; first compound 0.253 µM) of the same cell line?
**A.** 0.774

**Q.** And the relative viability (Olaparib + Crizotinib; first compound 2.53 µM)?
**A.** 0.801

**Q.** And the relative viability (Olaparib + Crizotinib; first compound 8 µM)?
**A.** 0.621

**Q.** What about the relative viability (Carfilzomib + Foretinib; first compound 0.001 µM) of the same cell line?
**A.** 0.838

**Q.** And the relative viability (Carfilzomib + Foretinib; first compound 0.003162 µM)?
**A.** 0.857

**Q.** What about the relative viability (Carfilzomib + Foretinib; first compound 0.01 µM) of the same cell line?
**A.** 0.919

**Q.** What about the relative viability (Carfilzomib + Foretinib; first compound 0.03162 µM) of the same cell line?
**A.** 0.116

**Q.** What about the relative viability (Carfilzomib + Foretinib; first compound 0.1 µM) of the same cell line?
**A.** 0.124

**Q.** Which relative viability (Crizotinib + Dasatinib; first compound 0.01 µM) does the source give for SK-MES-1 here?
**A.** 0.385

**Q.** What about the relative viability (Crizotinib + Dasatinib; first compound 0.03162 µM) of the same cell line?
**A.** 0.373

**Q.** And the relative viability (Crizotinib + Dasatinib; first compound 0.1 µM)?
**A.** 0.418

**Q.** And the relative viability (Crizotinib + Dasatinib; first compound 0.3162 µM)?
**A.** 0.312

**Q.** What about the relative viability (Crizotinib + Dasatinib; first compound 1 µM) of the same cell line?
**A.** 0.341

**Q.** And the relative viability (Olaparib + Alpelisib; first compound 0.08 µM)?
**A.** 0.925

**Q.** And the relative viability (Olaparib + Alpelisib; first compound 0.253 µM)?
**A.** 0.764

**Q.** And the relative viability (Olaparib + Alpelisib; first compound 2.53 µM)?
**A.** 1.02

**Q.** What about the relative viability (Olaparib + Alpelisib; first compound 8 µM) of the same cell line?
**A.** 0.697

**Q.** And the relative viability (Olaparib + Crizotinib; first compound 0.08 µM)?
**A.** 0.982

**Q.** And the relative viability (Olaparib + Crizotinib; first compound 0.253 µM)?
**A.** 0.89

**Q.** And the relative viability (Olaparib + Crizotinib; first compound 2.53 µM)?
**A.** 0.885

**Q.** And the relative viability (Olaparib + Crizotinib; first compound 8 µM)?
**A.** 0.668

**Q.** What about the relative viability (Carfilzomib + Foretinib; first compound 0.001 µM) of the same cell line?
**A.** 0.851

**Q.** What about the relative viability (Carfilzomib + Foretinib; first compound 0.003162 µM) of the same cell line?
**A.** 0.954

**Q.** What about the relative viability (Carfilzomib + Foretinib; first compound 0.01 µM) of the same cell line?
**A.** 0.918

**Q.** And the relative viability (Carfilzomib + Foretinib; first compound 0.03162 µM)?
**A.** 0.97

**Q.** What about the relative viability (Carfilzomib + Foretinib; first compound 0.1 µM) of the same cell line?
**A.** 0.283

**Q.** How did the relative viability (Crizotinib + Dasatinib; first compound 0.01 µM) turn out when SW 1573 was run?
**A.** 0.352

**Q.** And the relative viability (Crizotinib + Dasatinib; first compound 0.03162 µM)?
**A.** 0.389

**Q.** And the relative viability (Crizotinib + Dasatinib; first compound 0.1 µM)?
**A.** 0.51

**Q.** What about the relative viability (Crizotinib + Dasatinib; first compound 0.3162 µM) of the same cell line?
**A.** 0.449

**Q.** And the relative viability (Crizotinib + Dasatinib; first compound 1 µM)?
**A.** 0.454

**Q.** What about the relative viability (Olaparib + Alpelisib; first compound 0.08 µM) of the same cell line?
**A.** 0.715

**Q.** And the relative viability (Olaparib + Alpelisib; first compound 0.253 µM)?
**A.** 0.667

**Q.** And the relative viability (Olaparib + Alpelisib; first compound 2.53 µM)?
**A.** 0.627

**Q.** And the relative viability (Olaparib + Alpelisib; first compound 8 µM)?
**A.** 0.471

**Q.** What about the relative viability (Olaparib + Crizotinib; first compound 0.08 µM) of the same cell line?
**A.** 0.788

**Q.** And the relative viability (Olaparib + Crizotinib; first compound 0.253 µM)?
**A.** 0.768

**Q.** And the relative viability (Olaparib + Crizotinib; first compound 2.53 µM)?
**A.** 0.601

**Q.** And the relative viability (Olaparib + Crizotinib; first compound 8 µM)?
**A.** 0.57

**Q.** And the relative viability (Carfilzomib + Foretinib; first compound 0.001 µM)?
**A.** 0.934

**Q.** And the relative viability (Carfilzomib + Foretinib; first compound 0.003162 µM)?
**A.** 1.27

**Q.** What about the relative viability (Carfilzomib + Foretinib; first compound 0.01 µM) of the same cell line?
**A.** 0.884

**Q.** What about the relative viability (Carfilzomib + Foretinib; first compound 0.03162 µM) of the same cell line?
**A.** 0.725

**Q.** What about the relative viability (Carfilzomib + Foretinib; first compound 0.1 µM) of the same cell line?
**A.** 0.0812

**Q.** UMC-11 was tested. Which relative viability (Crizotinib + Dasatinib; first compound 0.01 µM) did it give?
**A.** 0.381

**Q.** What about the relative viability (Crizotinib + Dasatinib; first compound 0.03162 µM) of the same cell line?
**A.** 0.468

**Q.** And the relative viability (Crizotinib + Dasatinib; first compound 0.1 µM)?
**A.** 0.426

**Q.** And the relative viability (Crizotinib + Dasatinib; first compound 0.3162 µM)?
**A.** 0.282

**Q.** And the relative viability (Crizotinib + Dasatinib; first compound 1 µM)?
**A.** 0.502

**Q.** And the relative viability (Olaparib + Alpelisib; first compound 0.08 µM)?
**A.** 1.08

**Q.** And the relative viability (Olaparib + Alpelisib; first compound 0.253 µM)?
**A.** 0.877

**Q.** What about the relative viability (Olaparib + Alpelisib; first compound 2.53 µM) of the same cell line?
**A.** 0.825

**Q.** What about the relative viability (Olaparib + Alpelisib; first compound 8 µM) of the same cell line?
**A.** 0.409

**Q.** And the relative viability (Olaparib + Crizotinib; first compound 0.08 µM)?
**A.** 0.757

**Q.** And the relative viability (Olaparib + Crizotinib; first compound 0.253 µM)?
**A.** 0.502

**Q.** And the relative viability (Olaparib + Crizotinib; first compound 2.53 µM)?
**A.** 0.492

**Q.** What about the relative viability (Olaparib + Crizotinib; first compound 8 µM) of the same cell line?
**A.** 0.265

**Q.** And the relative viability (Carfilzomib + Foretinib; first compound 0.001 µM)?
**A.** 0.996

**Q.** And the relative viability (Carfilzomib + Foretinib; first compound 0.003162 µM)?
**A.** 1.05

**Q.** And the relative viability (Carfilzomib + Foretinib; first compound 0.01 µM)?
**A.** 1.06

**Q.** What about the relative viability (Carfilzomib + Foretinib; first compound 0.03162 µM) of the same cell line?
**A.** 0.944

**Q.** And the relative viability (Carfilzomib + Foretinib; first compound 0.1 µM)?
**A.** 0.299
